Article PMC9226124, “Macrocycle-stabilization of its interaction with 14-3-3 increases plasma membrane localization and activity of CFTR” (Nature Communications, 2022)
Values joined by “and” are separate entries in the source; they are usually repeats but may differ in a detail not shown here. Identical values can stand only once.

Key:
[1] = target: T1, 14-3-3β/CFTRpS753pS768 complex (Homo sapiens, UniProt P13569+P31946); assay: FP assay, 14-3-3β titration at constant compound concentration (apparent KD); assay type: binding
T1 construct: His6 (cleaved yes); made in house; peptide synthetic
T1 sequence (P31946 whole entry): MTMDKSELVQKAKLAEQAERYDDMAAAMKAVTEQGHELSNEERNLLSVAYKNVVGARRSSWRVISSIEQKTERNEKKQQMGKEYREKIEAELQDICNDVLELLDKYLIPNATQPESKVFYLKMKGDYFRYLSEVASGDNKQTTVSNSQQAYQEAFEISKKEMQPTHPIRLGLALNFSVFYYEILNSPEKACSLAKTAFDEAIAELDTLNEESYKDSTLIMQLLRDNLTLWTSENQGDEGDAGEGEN
T1 sequence (P13569 747-774 limits assumed): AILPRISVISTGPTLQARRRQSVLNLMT
Protocol: FC-A (100 µM) was added as a positive control and DMSO as the negative control. […] Background polarization was subtracted from all values, n = 3 technical replicates. […] Source data are provided as a Source Data file. […]
The FITC-labeled peptides were dissolved in FP buffer (10 mM HEPES pH 7.4, 150 mM NaCl, 0.1% Tween20, 1 mg/mL BSA) to a final concentration of 100 nM or 10 nM. […] The dilution series were made in 384 Corning Black Round Bottom well plates and their polarization was measured with a Tecan Infinite F500 plate reader (ex. = 485 nm, em. = 535 nm). The method of fitting of the curves was: “log(agonist) vs. response – Variable slope (four parameters)” from GraphPad Prism. The equation is Y = Bottom + (Top-Bottom)/(1 + 10^((LogEC50-X)*HillSlope)).
from the hit validation library.
f the compound, 100 µM FC-A, or both compound and FC-A, 100 µM each. Background polarization was subtracted f
rom all values, n=3 technical replicates.
Source data are provided as a Source Data file.

[2] = target: T2, 3HA-tagged F508del-CFTR in BHK cells (Homo sapiens, UniProt P13569, DEL508-508); assay: CFTR trafficking assay (surface expression); assay type: cell-based, hamster
T2 construct: expressed in transfected cells; host or cells: baby hamster kidney (BHK) cells (Carlile et al. 2007)
T2 sequence (P13569 with tags, fused parts or gaps DEL508-508): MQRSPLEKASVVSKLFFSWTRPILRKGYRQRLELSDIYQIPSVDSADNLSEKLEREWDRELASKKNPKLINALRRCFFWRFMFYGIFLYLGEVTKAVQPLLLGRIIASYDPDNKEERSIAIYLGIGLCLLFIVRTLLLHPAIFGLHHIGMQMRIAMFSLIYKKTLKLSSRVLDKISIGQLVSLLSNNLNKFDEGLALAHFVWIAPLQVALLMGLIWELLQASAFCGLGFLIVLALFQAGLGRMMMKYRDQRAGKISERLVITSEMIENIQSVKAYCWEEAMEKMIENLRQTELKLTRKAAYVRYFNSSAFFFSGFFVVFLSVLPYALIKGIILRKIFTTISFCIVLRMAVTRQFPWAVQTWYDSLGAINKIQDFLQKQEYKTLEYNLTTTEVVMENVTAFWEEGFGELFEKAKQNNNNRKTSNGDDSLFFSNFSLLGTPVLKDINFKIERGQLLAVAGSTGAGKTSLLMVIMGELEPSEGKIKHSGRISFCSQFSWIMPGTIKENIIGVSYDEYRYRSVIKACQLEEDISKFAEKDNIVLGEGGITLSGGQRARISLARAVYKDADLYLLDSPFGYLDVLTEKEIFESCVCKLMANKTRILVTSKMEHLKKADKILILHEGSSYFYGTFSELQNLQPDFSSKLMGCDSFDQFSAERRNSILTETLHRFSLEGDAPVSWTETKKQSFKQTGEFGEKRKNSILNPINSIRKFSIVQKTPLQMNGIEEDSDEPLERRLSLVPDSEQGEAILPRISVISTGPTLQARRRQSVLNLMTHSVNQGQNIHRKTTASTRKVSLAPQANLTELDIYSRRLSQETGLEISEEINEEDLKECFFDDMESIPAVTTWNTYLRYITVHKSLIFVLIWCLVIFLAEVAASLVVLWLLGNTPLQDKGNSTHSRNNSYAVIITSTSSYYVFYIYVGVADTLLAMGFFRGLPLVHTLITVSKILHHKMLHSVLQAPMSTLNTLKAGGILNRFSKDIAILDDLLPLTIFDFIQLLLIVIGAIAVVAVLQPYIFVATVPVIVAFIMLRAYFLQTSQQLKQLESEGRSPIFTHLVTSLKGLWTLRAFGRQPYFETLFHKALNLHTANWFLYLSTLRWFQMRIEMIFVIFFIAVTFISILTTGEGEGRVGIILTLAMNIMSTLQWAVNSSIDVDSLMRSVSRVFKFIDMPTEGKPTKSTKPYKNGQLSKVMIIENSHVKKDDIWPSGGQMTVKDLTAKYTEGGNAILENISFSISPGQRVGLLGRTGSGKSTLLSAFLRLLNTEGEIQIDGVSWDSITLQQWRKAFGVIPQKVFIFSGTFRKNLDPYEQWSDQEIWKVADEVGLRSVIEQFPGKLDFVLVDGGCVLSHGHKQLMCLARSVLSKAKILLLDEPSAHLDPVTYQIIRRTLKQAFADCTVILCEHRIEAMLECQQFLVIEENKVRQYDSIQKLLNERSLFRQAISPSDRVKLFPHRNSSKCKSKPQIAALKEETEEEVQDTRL
Procedure, shortened: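 BHK cells expressing 3HA-tagged F508del-CFTR treated 24 h with 10 μM compound (1% DMSO final), fixed, stained with anti-HA plus FITC-conjugated anti-mouse IgG. Fluorescence (488/510 nm) background-subtracted and normalized to DMSO control and wt-CFTR-expressing cells.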

Fluorescence polarization signal, 14-3-3β titration ([1]; CY compound (100 μM), 14-3-3β concentration 7.62939e-9 M): 3.667 and 2.667 and 4.667
Fluorescence polarization signal, 14-3-3β titration ([1]; CY compound (100 μM), 14-3-3β concentration 3.05176e-8 M): 5.667 and 6.667
Fluorescence polarization signal, 14-3-3β titration ([1]; CY compound (100 μM), 14-3-3β concentration 2.44141e-7 M): 8.667 and 10.6667 and 11.6667
Fluorescence polarization signal, 14-3-3β titration ([1]; CY compound (100 μM), 14-3-3β concentration 4.88281e-7 M): 12.6667 and 17.6667 and 16.6667
Fluorescence polarization signal, 14-3-3β titration ([1]; CY compound (100 μM), 14-3-3β concentration 7.8125e-6 M): 36.6667 and 60.6667 and 59.6667
Fluorescence polarization signal, 14-3-3β titration ([1]; CY compound (100 μM), 14-3-3β concentration 1.5625e-5 M): 49.6667 and 67.6667 and 72.6667
Fluorescence polarization signal, 14-3-3β titration ([1]; CY compound (100 μM), 14-3-3β concentration 3.125e-5 M): 68.6667 and 82.6667 and 79.6667
Fluorescence polarization signal, 14-3-3β titration ([1]; CY compound (100 μM), 14-3-3β concentration 6.25e-5 M): 87.6667 and 91.6667 and 95.6667
Fluorescence polarization signal, 14-3-3β titration ([1]; CY compound (100 μM), 14-3-3β concentration 0.000125 M): 105.667 and 110.667 and 108.667
Fluorescence polarization signal, 14-3-3β titration ([1]; CY compound (100 μM), 14-3-3β concentration 0.00025 M): 127.667 and 126.667
Fluorescence polarization signal, 14-3-3β titration ([1]; CY compound (100 μM), 14-3-3β concentration 0.0005 M): 145.667 and 146.667 and 147.667
Fluorescence polarization signal, 14-3-3β titration ([1]; FC-A + CY compound, 14-3-3β concentration 119.2 pM): 1.667
Fluorescence polarization signal, 14-3-3β titration ([1]; FC-A + CY compound, 14-3-3β concentration 3.05176e-8 M): 5.667 and 8.667
Fluorescence polarization signal, 14-3-3β titration ([1]; FC-A + CY compound, 14-3-3β concentration 6.10352e-8 M): 6.667 and 12.6667 and 9.667
Fluorescence polarization signal, 14-3-3β titration ([1]; FC-A + CY compound, 14-3-3β concentration 1.2207e-7 M): 20.6667 and 16.6667 and 13.6667
Fluorescence polarization signal, 14-3-3β titration ([1]; FC-A + CY compound, 14-3-3β concentration 2.44141e-7 M): 27.6667 and 26.6667
Fluorescence polarization signal, 14-3-3β titration ([1]; FC-A + CY compound, 14-3-3β concentration 4.88281e-7 M): 49.6667 and 43.6667
Fluorescence polarization signal, 14-3-3β titration ([1]; FC-A + CY compound, 14-3-3β concentration 9.76563e-7 M): 71.6667 and 68.6667 and 64.6667
Fluorescence polarization signal, 14-3-3β titration ([1]; FC-A + CY compound, 14-3-3β concentration 1.95313e-6 M): 94.6667 and 91.6667 and 86.6667
Fluorescence polarization signal, 14-3-3β titration ([1]; FC-A + CY compound, 14-3-3β concentration 3.90625e-6 M): 110.667 and 106.667 and 104.667
Fluorescence polarization signal, 14-3-3β titration ([1]; FC-A + CY compound, 14-3-3β concentration 7.8125e-6 M): 123.667 and 119.667 and 117.667
Fluorescence polarization signal, 14-3-3β titration ([1]; FC-A + CY compound, 14-3-3β concentration 1.5625e-5 M): 128.667 and 130.667
Fluorescence polarization signal, 14-3-3β titration ([1]; FC-A + CY compound, 14-3-3β concentration 3.125e-5 M): 139.667 and 137.667 and 141.667
Fluorescence polarization signal, 14-3-3β titration ([1]; FC-A + CY compound, 14-3-3β concentration 6.25e-5 M): 145.667 and 146.667 and 143.667
Fluorescence polarization signal, 14-3-3β titration ([1]; FC-A + CY compound, 14-3-3β concentration 0.000125 M): 155.667 and 156.667
Fluorescence polarization signal, 14-3-3β titration ([1]; FC-A + CY compound, 14-3-3β concentration 0.00025 M): 165.667 and 164.667 and 162.667
Fluorescence polarization signal, 14-3-3β titration ([1]; FC-A + CY compound, 14-3-3β concentration 0.0005 M): 178.667 and 174.667 and 172.667
SMILES: CC1NC(=O)C(CCCNC(=N)N)NC(=O)C2CCCN2Cc2cccc(c2)-c2ccccc2CNC(=O)C(CCCNC(=N)N)NC1=O (centres unmarked) [CY007476]
F508del-CFTR trafficking towards the plasma membrane ([2]; BHK cells, 24 h, 10 μM compound): increase of F508del-CFTR trafficking towards the plasma membrane
F508del-CFTR surface expression signal (Fig5a) ([2]; individual replicates): 1288.45 and 1177.16 and 1241.43 and 1259.33
